Assays:
bone resorption = conditions: both in vitro and in vivo; cited from earlier work
nanobacteria = assay: Antibiotic susceptibility of nanobacteria, Minimal Inhibition Concentration (MIC) in 96-well plates; type: cell-based
Protocol: Antibiotic sensitivity tests were carried out by measuring Minimal Inhibition Concentration (MIC), a common practice in clinical microbiology.
The tests were performed in 96-well plates. DMEM (commercial cell culture medium) containing 10% gamma-irradiated fetal bovine serum (FBS)(dose about 3 Mrads; this treatment inactivates nanobacteria in the serum so that the basic medium is sterile) was used as the basic culture medium. These components are commercially available, e.g., from Gibco. The antibiotic stock solutions were sterile filtered through 0.2 micrometer filters. The stock solutions were then serially diluted (into the basal culture medium) to provide a final starting concentration of 0.5 mg/ml and 1:2 dilutions therefrom, unless otherwise specified. For each antibiotic three parallel tests were performed using all the antibiotic dilutions and, additionally, positive and negative control experiments. […] 100 μl of dilutions of the nanobacteria inoculum were added to all wells except the negative controls. The plates were incubated at mammalian cell culture conditions (37° Celsius, 5% carbon dioxide, 95% humid air). The absorbance values at 650 nm were recorded by using an ELISA reader at the start, and at 4, 8, 12, 14 days. […] Calculations were based on absorbance curves where absorbance was plotted against concentration of the antibiotic.

serum nanobacteria = assay: Antibiotic sensitivity test of serum nanobacteria (cell culture antibiotics); type: cell-based; conditions: 100 μg/ml, cultured one month in medium containing 10% fetal bovine serum
Protocol: Nanobacteria were cultured with 10% fetal bovine serum in DMEM medium (serum nanobacteria) for one month at 37° C. in an atmosphere of 5% CO2-95% air. The cultures were harvested by centrifugation. For the autoclaving, UV, microwave, heating and drying treatments, the harvested nanobacteria were suspended in phosphate buffered saline (pH 7.4; PBS). After treatments, subculturing of the nanobacteria was made in 10% gamma irradiated fetal bovine serum in DMEM medium. The growth of serum nanobacteria was followed by light microscopy and absorbance measurement with a spectrophotometer at 650 nm.
The 1× concentrations are those recommended for cell culture. After 10 days culture in 10% serum containing DMEM with the antibiotic, growth was compared to that of nanobacteria cultures without antibiotics present.

Row | Molecule | Potency relative to etidronate (bone resorption) | Kind of antinanobacterial effect in the in vitro test (in words) (nanobacteria) | Morphology of nanobacteria in SEM (serum nanobacteria)
1 | NCCCC(O)(P(=O)(O)O)P(=O)(O)O [alendronate] | approximately 700 fold | – | –
2 | Gentamycin | – | bacteriostatic effects at high antibiotic concentrations | changes in the morphology

Source: patent publication US20050036904A1, “Methods for eradication of nanobacteria” (priority 1998, published 2005)
